The values below come from paper PMC4718068 (Translation, 2013).

Test [1] deals with Ribosomes from E. coli MRE 600 (E. coli MRE 600) (UniProt P0AG67). As to the kind of experiment: stopped-flow fluorescence of mant-nucleotide excited by FRET from Trp of EF-G.
Test [2] deals with EF-G (Escherichia coli, UniProt P0A6M8). As to the kind of experiment: equilibrium titration, Trp fluorescence. It counts as binding.
Test [3] concerns the target EF-G (Escherichia coli, UniProt P0A6M8, H92A). As to the kind of experiment: equilibrium titration, Trp fluorescence. Format: binding.

EF-G (Escherichia coli, UniProt P0A6M8, H92A), sequence (P0A6M8 2-704 H92A): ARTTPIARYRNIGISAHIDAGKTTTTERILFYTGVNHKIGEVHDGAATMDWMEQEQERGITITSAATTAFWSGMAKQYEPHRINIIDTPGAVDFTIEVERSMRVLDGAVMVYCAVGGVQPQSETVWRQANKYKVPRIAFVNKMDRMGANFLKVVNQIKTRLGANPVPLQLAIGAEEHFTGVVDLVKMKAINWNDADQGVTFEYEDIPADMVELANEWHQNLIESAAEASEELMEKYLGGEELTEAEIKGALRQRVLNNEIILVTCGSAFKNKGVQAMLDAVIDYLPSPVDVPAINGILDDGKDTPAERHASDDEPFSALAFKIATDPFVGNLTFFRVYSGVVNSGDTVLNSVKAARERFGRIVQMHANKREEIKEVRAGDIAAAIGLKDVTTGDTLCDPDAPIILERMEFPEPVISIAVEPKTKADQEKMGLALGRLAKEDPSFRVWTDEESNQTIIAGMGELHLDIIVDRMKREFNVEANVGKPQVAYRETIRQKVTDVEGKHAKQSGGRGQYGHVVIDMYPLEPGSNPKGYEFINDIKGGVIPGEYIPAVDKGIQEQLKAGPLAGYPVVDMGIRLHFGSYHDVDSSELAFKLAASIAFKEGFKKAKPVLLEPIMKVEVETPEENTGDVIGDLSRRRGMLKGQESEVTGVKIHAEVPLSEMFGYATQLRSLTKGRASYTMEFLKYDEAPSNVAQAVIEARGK
EF-G (Escherichia coli, UniProt P0A6M8), sequence (P0A6M8 2-704): as the sequence (P0A6M8 2-704 H92A) above, with A91H counted along it

Consider EF-G(H91A) (enzyme), for which the rate of formation of the ribosome–EF-G-mant-GTP complex in test [1] is 1 s⁻¹.
In general, Kd refers to a measure of binding affinity in units of concentration. Consider `Nc1nc2c(ncn2[C@@H]2O[C@H](COP(=O)(O)OP(=O)(O)OP(=O)(O)O)[C@@H](O)[C@H]2O)c(=O)[nH]1` [GTP], for which the Kd on EF-G [2] and on EF-G [3] was 1000 to 2000 nM throughout.
